Where two headings read alike, the source gives them in different places.
Experiments:
[1] = biological target: T1, 697-neo HM (caspase-1 treated) derived caspase (Homo sapiens, UniProt P42574); assay: Inhibition of DEVD-amc cleavage, caspase-1 activated 697-neo heavy membranes; format: biochemical
T1 construct: the heavy membrane caspase is comprised of a large 19-kDa subunit and a smaller 12-kDa subunit; endogenous in cells; host or cells: 697-neo / 697-Bcl-2 human lymphoblastoid cells; supernatant assayed
T1 sequence (P42574 14-175): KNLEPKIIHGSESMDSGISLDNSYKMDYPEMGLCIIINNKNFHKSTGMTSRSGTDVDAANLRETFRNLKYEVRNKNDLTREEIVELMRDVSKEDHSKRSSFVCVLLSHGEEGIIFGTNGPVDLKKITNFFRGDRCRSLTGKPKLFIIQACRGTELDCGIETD
T1 sequence (P42574 176-277): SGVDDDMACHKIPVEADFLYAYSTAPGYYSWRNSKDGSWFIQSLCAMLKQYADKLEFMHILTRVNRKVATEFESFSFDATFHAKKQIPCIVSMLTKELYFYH
Experimental: (§1) SEQ ID NO:6) substrate in ICE buffer (20 mM HEPES, 1 mM EDTA, 0.1% CHAPS, 10% sucrose, 5 mM DTT, pH 7.5) in duplicate Cytoplate wells. […] KM values were calculated from these measurements using the equation: where ΔFL/Δt is the observed initial rate of fluorescence change at substrate concentration [S] and (ΔFL/Δt)MAX is the initial rate of fluorescence change at saturating substrate concentrations. For inhibition studies, 50 μl of the enzyme was pretreated with 150 μl inhibitor for 30 min at room temperature prior to the addition of 50 μl of 50 μM substrate solution.

[2] = biological target: T2, 697 Bcl-2 HM (caspase-1 treated) derived caspase (Homo sapiens, UniProt P42574); assay: Inhibition of DEVD-amc cleavage, caspase-1 activated 697-Bcl-2 heavy membranes; format: biochemical
T2 construct: the heavy membrane caspase is comprised of a large 19-kDa subunit and a smaller 12-kDa subunit; endogenous in cells; host or cells: 697-neo / 697-Bcl-2 human lymphoblastoid cells; supernatant assayed
T2 sequence (P42574 14-175): T1 sequence (P42574 14-175)
T2 sequence (P42574 176-277): T1 sequence (P42574 176-277)
Experimental: as §1

[3] = system: cortical cell HM (caspase-1 treated) derived caspase; assay: Inhibition of DEVD-amc cleavage, caspase-1 activated E15 brain cortical cell heavy membranes; format: biochemical, mouse
Experimental: (§2) Caspase activity was measured by mixing 50 μl of an enzyme-containing fraction and 200 μl of 25 μM DEVD-amc (Asp-Glu-Val-Asp-aminomethylcoumarin; SEQ ID NO:6) substrate in ICE buffer (20 mM HEPES, 1 mM EDTA, 0.1% CHAPS, 10% sucrose, 5 mM DTT, pH 7.5) in duplicate Cytoplate wells. Product formation was monitored by the increase in fluorescence (ex=360 nm, em=460 nm) over 1-2 hours at 30° C. using the CytoFluor 4000 plate reader (Perseptive Biosystems, Framingham, Mass.). For kinetic studies, the substrate concentration was varied in the range 1-200 μM. KM values were calculated from these measurements using the equation: […]
(§3) where ΔFL/Δt is the observed initial rate of fluorescence change at substrate concentration [S] and (ΔFL/Δt)MAX is the initial rate of fluorescence change at saturating substrate concentrations. […] Inhibitor IC50 values were determined using the equation: […]
(§4) ΔFL/Δt is the observed initial rate of fluorescence change at inhibitor concentration [I] and (ΔFL/Δt)o is the initial rate fluorescence change for the uninhibited enzyme. […]
(§5) To determine if the presence of membrane derived caspase activity is a general property of mammalian cells, the DEVD-amc cleavage activity in heavy membranes from two other cell sources was measured: mouse E 15 primary brain cortical cells and the mouse dopaminergic MN9D cell line (Choi et al., […] 89:8943-8947, 1992). […]

[4] = biological target: MN9D HM (caspase-1 treated) derived caspase; assay: Inhibition of DEVD-amc cleavage, caspase-1 activated MN9D heavy membranes; format: biochemical, mouse
Experimental: as §2, §3, §4, §5

[5] = biological target: T3, recombinant human caspase-3 (r-caspase-3 (His)6) (Homo sapiens, UniProt P42574); assay: DEVD-amc cleavage by recombinant caspase-3; format: biochemical
T3 construct: The large subunit of purified bacterially expressed caspase-3 migrates as a 17-kDa band; purified fully-processed recombinant human caspase-3; His6 (C); made in house; host or cells: E. coli BL21 (DE3), pET21b; Ni2+ chelating column
T3 sequence (P42574 29-175 limits assumed): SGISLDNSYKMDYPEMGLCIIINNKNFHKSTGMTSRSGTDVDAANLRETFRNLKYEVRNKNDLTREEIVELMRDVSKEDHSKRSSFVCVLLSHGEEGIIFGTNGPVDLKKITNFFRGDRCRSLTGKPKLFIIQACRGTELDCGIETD
T3 sequence (P42574 176-277 limits assumed): T1 sequence (P42574 176-277)
Experimental: (§6) For inhibition studies, 50 μl of the enzyme was pretreated with 150 μl inhibitor for 30 min at room temperature prior to the addition of 50 μl of 50 μM substrate solution.

caspase-1 = biological target: T4, caspase-1 (Mus musculus, UniProt P29452); assay: Caspase-1 inhibition; format: biochemical; details: 300 nM
T4 construct: contains the p30 caspase-1 cDNA inserted into the Nde I/BamH I sites of the pET3a expression vector; FLAG; made in house; host or cells: E. coli BL21 (DE3) pLysS, pET3a; used as clarified bacterial lysate
T4 sequence (P29452 119-296 limits assumed): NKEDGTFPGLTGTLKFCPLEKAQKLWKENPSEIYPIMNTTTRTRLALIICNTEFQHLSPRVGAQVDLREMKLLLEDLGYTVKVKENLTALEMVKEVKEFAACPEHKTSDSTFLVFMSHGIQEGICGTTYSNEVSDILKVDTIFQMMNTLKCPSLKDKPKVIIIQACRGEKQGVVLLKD
T4 sequence (P29452 315-402 limits assumed): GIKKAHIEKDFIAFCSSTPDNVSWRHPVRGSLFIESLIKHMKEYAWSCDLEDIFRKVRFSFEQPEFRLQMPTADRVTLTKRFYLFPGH

[6] = biological target: T5, caspase-1 activation of membrane derived procaspase-3 (Mus musculus, UniProt P29452); assay: Caspase-1 mediated activation of membrane procaspase-3 in 697 heavy membranes; format: biochemical, human
T5 construct: contains the p30 caspase-1 cDNA inserted into the Nde I/BamH I sites of the pET3a expression vector; FLAG; made in house; host or cells: caspase-1: E. coli BL21 (DE3) pLysS lysate; procaspase-3: endogenous in 697 cell heavy membranes
T5 sequence (P29452 119-296 limits assumed): T4 sequence (P29452 119-296 limits assumed)
T5 sequence (P29452 315-402 limits assumed): T4 sequence (P29452 315-402 limits assumed)
Experimental: Heavy membrane samples were diluted to 1 mg/ml in hypotonic buffer or in 0.25 M sucrose, 10 mM MOPS, 2 mM EDTA, pH 7.4 (Mancini, et al., 1998) containing 5 mM DTT with or without 1% NP-40. […] After the activation period, the heavy membrane pellet was removed from the sample by centrifugation for 10 min at 14,000×g at 4° C. […] In some experiments, caspase-1 activity was rapidly quenched at specific time points by the addition of one-tenth volume 3 μM YVADaldehyde (Bachem Bioscience, King of Prussia, Pa.) prior to centrifugation. To examine the time course of spontaneous activation of caspase activity from membranes, 50 μi of heavy membrane slurry containing 50-100 μg total protein was mixed with 200 μl hypotonic buffer containing 25 μM DEVD-amc substrate and 6 mM DTT in 96 well Cytofluor plates and fluorescence was measured over time. At selected time points, aliquots were removed from some wells, centrifuged for 10 min at 14,000×g to remove the heavy membranes and the supernatant was added back into the 96 well plate to measure the soluble DEVD-amc cleavage activity. […]
In this experiment, heavy membrane fractions (containing 50 μg total protein) from 697-Bcl-2 and 697-neo cells were re-suspended and treated with murine caspase-1 for one hour at room temperature. Following centrifugation, the DEVD-amc cleavage activity of the resulting supernatant was measured.

[7] = biological target: T6, purified membrane derived caspase-3 (Homo sapiens, UniProt P42574); assay: DEVD-AMC cleavage by affinity purified membrane derived caspase-3 from 697 cells; format: biochemical
T6 construct: the heavy membrane caspase is comprised of a large 19-kDa subunit and a smaller 12-kDa subunit; endogenous in cells; host or cells: 697 human lymphoblastoid cells
T6 sequence (P42574 14-175): T1 sequence (P42574 14-175)
T6 sequence (P42574 176-277): T1 sequence (P42574 176-277)
Experimental: as §6

CC(=O)N[C@@H](Cc1ccc(O)cc1)C(=O)N[C@H](C(=O)N[C@@H](C)C(=O)N[C@H](C=O)CC(=O)O)C(C)C [YVAD-ald]
Inhibition of DEVD-AMC hydrolysis activity of caspase-1 activated membrane caspase ([1]; 300 nM): not inhibited | IC50 ([1]; inhibition of DEVD-amc cleavage): > 10 µM | IC50 [2]: > 10 µM | IC50 [3]: > 10 µM | IC50 [4]: > 10 µM | IC50 ([5]; inhibition of DEVD-amc cleavage, read-out: IC50 r-caspase-3 (His)6): > 10 µM | IC50 ([5]; read-out: IC50 caspase-3): > 10 µM | Inhibition of caspase-1 (caspase-1): completely inhibits | Block of caspase-1 activation of membrane caspase ([6]; 200 nM): completely blocked | Block of activation of DEVD-AMC hydrolytic activity and generation of 20-kDa large subunit ([6]; caspase-1 pretreated with 300 nM): blocks

CC(C)[C@H](NC(=O)[C@H](CCC(=O)O)NC(=O)OCc1ccccc1)C(=O)N[C@H](C=O)CC(=O)O [ZEVDald]
IC50 ([7]; inhibition of DEVD-AMC cleavage, Table III, read-out: IC50 Membrane (purified membrane derived caspase-3)): 32 nM

B1: Baculovirus p35: early p35 protein from Autographa californica nuclear polyhedrosis virus, recombinant (protein)
chain: MCVIFPVEIDVSQTIIRDCQVDKQTRELVYINKIMNTQLTKPVLMMFNISGPIRSVTRKNNNLRDRIKSKVDEQFDQLERDYSDQMDGFHDSIKYFKDEHYSVSCQNGSVLKSKFAKILKSHDYTDKKSIEAYEKYCLPKLVDERNDYYVAVCVLKPGFENGSNQVLSFEYNPIGNKVIVPFAHEINDTGLYEYDVVAYVDSVQFDGEQFEEFVQSLILPSSFKNSEKVLYYNEASKNKSMIYKALEFTTESSWGKSEKYNWKIFCNGFIYDKKSKVLYVKLHNVTSALNKNVILNTIK
IC50 ([5]; inhibition of DEVD-AMC cleavage, Table III, read-out: IC50 Recombinant (caspase-3)): 4.1e-05 µM | IC50 ([7]; read-out: IC50 heavy membrane caspase from 697 cells): 0.074 nM
